Experimental data from ChEMBL document CHEMBL4138123, “Design, synthesis and biological evaluation of novel pyrazolochalcones as potential modulators of PI3K/Akt/mTOR pathway and inducers of apoptosis in breast cancer cells” (Eur J Med Chem, 2017).

Experiments:
Assay type in all cases: functional
[1] = system: SR; experiment: Cytotoxicity against human SR cells assessed as growth inhibition after 48 hrs by sulforhodamine B assay; conditions: for CC50: read-out: LC50 (the source's name)
[2] = system: HOP-62; experiment: Cytotoxicity against human HOP62 cells assessed as growth inhibition after 48 hrs by sulforhodamine B assay; conditions: HOP-62, 48 h
[3] = system: HCC 2998; experiment: Cytotoxicity against human HCC2998 cells assessed as growth inhibition after 48 hrs by sulforhodamine B assay; conditions: HCC 2998, 48 h
[4] = system: KM12; experiment: Cytotoxicity against human KM12 cells assessed as growth inhibition after 48 hrs by sulforhodamine B assay; conditions: KM12, 48 h
[5] = system: Hs-578T; experiment: Cytotoxicity against human Hs 578T cells assessed as growth inhibition after 48 hrs by sulforhodamine B assay
[6] = system: OVCAR-3; experiment: Cytotoxicity against human OVCAR3 cells assessed as cell growth at 0.01 uM after 48 hrs by sulforhodamine B assay relative to control; conditions: OVCAR-3, 48 h, read-out: Activity
[7] = system: COLO 205; experiment: Cytotoxicity against human COLO205 cells assessed as cell growth at 0.01 uM after 48 hrs by sulforhodamine B assay relative to control; conditions: COLO 205, 48 h, read-out: Activity
[8] = system: NCI-H226; experiment: Cytotoxicity against human NCI-H226 cells assessed as cell growth at 0.01 uM after 48 hrs by sulforhodamine B assay relative to control; conditions: NCI-H226, 48 h, read-out: Activity
[9] = system: HL-60(TB); experiment: Cytotoxicity against human HL-60(TB) cells assessed as cell growth at 0.01 uM after 48 hrs by sulforhodamine B assay relative to control; conditions: HL-60, 48 h, read-out: Activity
[10] = system: MCF7; experiment: Cytotoxicity against human MCF7 cells assessed as cell growth at 0.01 uM after 48 hrs by sulforhodamine B assay relative to control; conditions: MCF7, 48 h, read-out: Activity
[11] = system: NCI-H460; experiment: Cytotoxicity against human NCI-H460 cells assessed as cell growth at 0.1 uM after 48 hrs by sulforhodamine B assay relative to control; conditions: NCI-H460, 48 h, read-out: Activity
[12] = system: SF-539; experiment: Cytotoxicity against human SF539 cells assessed as cell growth at 0.1 uM after 48 hrs by sulforhodamine B assay relative to control; conditions: SF-539, 48 h, read-out: Activity
[13] = system: SK-MEL-5; experiment: Cytotoxicity against human SK-MEL-5 cells assessed as cell growth at 0.1 uM after 48 hrs by sulforhodamine B assay relative to control; conditions: SK-MEL-5, 48 h, read-out: Activity
[14] = system: OVCAR-3; experiment: Cytotoxicity against human OVCAR3 cells assessed as cell growth at 0.1 uM after 48 hrs by sulforhodamine B assay relative to control; conditions: OVCAR-3, 48 h, read-out: Activity
[15] = system: OVCAR-8; experiment: Cytotoxicity against human OVCAR8 cells assessed as cell growth at 0.1 uM after 48 hrs by sulforhodamine B assay relative to control; conditions: OVCAR-8, 48 h, read-out: Activity
[16] = system: DU-145; experiment: Cytotoxicity against human DU145 cells assessed as cell growth at 0.1 uM after 48 hrs by sulforhodamine B assay relative to control; conditions: DU-145, 48 h, read-out: Activity
[17] = system: BT-549; experiment: Cytotoxicity against human BT549 cells assessed as cell growth at 0.1 uM after 48 hrs by sulforhodamine B assay relative to control; conditions: BT-549, 48 h, read-out: Activity
[18] = system: CCRF-CEM; experiment: Cytotoxicity against human CCRF-CEM cells assessed as cell growth at 1 uM after 48 hrs by sulforhodamine B assay relative to control; conditions: read-out: Activity
[19] = system: K562; experiment: Cytotoxicity against human K562 cells assessed as cell growth at 1 uM after 48 hrs by sulforhodamine B assay relative to control; conditions: K562, 48 h, read-out: Activity
[20] = system: Malme-3M; experiment: Cytotoxicity against human MALME-3M cells assessed as cell growth at 1 uM after 48 hrs by sulforhodamine B assay relative to control; conditions: read-out: Activity
[21] = system: M14; experiment: Cytotoxicity against human M14 cells assessed as cell growth at 1 uM after 48 hrs by sulforhodamine B assay relative to control; conditions: M14, 48 h, read-out: Activity
[22] = system: IGROV-1; experiment: Cytotoxicity against human IGROV1 cells assessed as cell growth at 1 uM after 48 hrs by sulforhodamine B assay relative to control; conditions: IGROV-1, 48 h, read-out: Activity
[23] = system: NCI/ADR-RES; experiment: Cytotoxicity against human NCI/ADR-RES cells assessed as cell growth at 1 uM after 48 hrs by sulforhodamine B assay relative to control; conditions: read-out: Activity
[24] = system: 786-0; experiment: Cytotoxicity against human 786-0 cells assessed as cell growth at 1 uM after 48 hrs by sulforhodamine B assay relative to control; conditions: 786-0, 48 h, read-out: Activity
[25] = system: CCRF-CEM; experiment: Cytotoxicity against human CCRF-CEM cells assessed as cell growth at 10 uM after 48 hrs by sulforhodamine B assay relative to control; conditions: read-out: Activity
[26] = system: K562; experiment: Cytotoxicity against human K562 cells assessed as cell growth at 10 uM after 48 hrs by sulforhodamine B assay relative to control; conditions: K562, 48 h, read-out: Activity
[27] = system: NCI-H226; experiment: Cytotoxicity against human NCI-H226 cells assessed as cell growth at 10 uM after 48 hrs by sulforhodamine B assay relative to control; conditions: NCI-H226, 48 h, read-out: Activity
[28] = system: NCI-H460; experiment: Cytotoxicity against human NCI-H460 cells assessed as cell growth at 10 uM after 48 hrs by sulforhodamine B assay relative to control; conditions: NCI-H460, 48 h, read-out: Activity
[29] = system: M14; experiment: Cytotoxicity against human M14 cells assessed as cell growth at 10 uM after 48 hrs by sulforhodamine B assay relative to control; conditions: M14, 48 h, read-out: Activity
[30] = system: RXF 393; experiment: Cytotoxicity against human RXF393 cells assessed as cell growth at 10 uM after 48 hrs by sulforhodamine B assay relative to control; conditions: RXF 393, 48 h, read-out: Activity
[31] = system: UO-31; experiment: Cytotoxicity against human UO31 cells assessed as cell growth at 10 uM after 48 hrs by sulforhodamine B assay relative to control; conditions: UO-31, 48 h, read-out: Activity
[32] = system: K562; experiment: Cytotoxicity against human K562 cells assessed as cell growth at 100 uM after 48 hrs by sulforhodamine B assay relative to control; conditions: K562, 48 h, read-out: Activity
[33] = system: HT-29; experiment: Cytotoxicity against human HT-29 cells assessed as cell growth at 100 uM after 48 hrs by sulforhodamine B assay relative to control; conditions: HT-29, 48 h, read-out: Activity
[34] = system: Malme-3M; experiment: Cytotoxicity against human MALME-3M cells assessed as cell growth at 100 uM after 48 hrs by sulforhodamine B assay relative to control; conditions: read-out: Activity
[35] = system: IGROV-1; experiment: Cytotoxicity against human IGROV1 cells assessed as cell growth at 100 uM after 48 hrs by sulforhodamine B assay relative to control; conditions: IGROV-1, 48 h, read-out: Activity
[36] = system: OVCAR-3; experiment: Cytotoxicity against human OVCAR3 cells assessed as cell growth at 100 uM after 48 hrs by sulforhodamine B assay relative to control; conditions: OVCAR-3, 48 h, read-out: Activity
[37] = system: UO-31; experiment: Cytotoxicity against human UO31 cells assessed as cell growth at 100 uM after 48 hrs by sulforhodamine B assay relative to control; conditions: UO-31, 48 h, read-out: Activity

With COc1ccc(-c2cc(/C=C/C(=O)c3cc(OC)c(OC)c(OC)c3)[nH]n2)cc1OC the GI50 [1] was 0.2 µM, the TGI [1] was 2.26 µM and the CC50 [1] was > 100 µM. For the same molecule, the GI50 [2] was 1.45 µM, the LC50 [2] was 8.85 µM and the TGI [2] was 3.58 µM. For the same molecule, the GI50 [3] was 1.9 µM, the LC50 [3] was 6.09 µM and the TGI [3] was 3.4 µM. It also gave a GI50 [4] of 0.78 µM, an LC50 [4] of 5.68 µM and a TGI [4] of 2.27 µM. For the same molecule, the GI50 [5] was 2.91 µM, the LC50 [5] was > 100 µM and the TGI [5] was 22.1 µM. For the same molecule, the growth at 0.01 µM [6] was 99%, the growth at 0.01 µM [7] was 99% and the growth at 0.01 µM [8] was 93%. For the same molecule, the growth at 0.01 µM [9] was 98%, the growth at 0.01 µM [10] was 92% and the growth at 0.1 µM [11] was 100%. It also gave a growth at 0.1 µM [12] of 81%, a growth at 0.1 µM [13] of 102% and a growth at 0.1 µM [14] of 100%. It also gave a growth at 0.1 µM [15] of 100%, a growth at 0.1 µM [16] of 103% and a growth at 0.1 µM [17] of 82%. The growth at 1 µM [18] was 14%, the growth at 1 µM [19] was 43% and the growth at 1 µM [20] was 93%. It also gave a growth at 1 µM [21] of 91%, a growth at 1 µM [22] of 93% and a growth at 1 µM [23] of 81%. The growth at 1 µM [24] was 81%, the growth at 10 µM [25] was -15% and the growth at 10 µM [26] was -1%. The growth at 10 µM [27] was -8%, the growth at 10 µM [28] was -41% and the growth at 10 µM [29] was -70%. The growth at 10 µM [30] was -80%, the growth at 10 µM [31] was -95% and the growth at 100 µM [32] was -16%. It also gave a growth at 100 µM [33] of -66%, a growth at 100 µM [34] of -62% and a growth at 100 µM [35] of -72%. It also gave a growth at 100 µM [36] of -83% and a growth at 100 µM [37] of -93%.

With COc1ccc(-c2cc(/C=C/C(=O)c3ccc(N)cc3)[nH]n2)cc1OC the GI50 [1] was 0.58 µM, the TGI [1] was 5.31 µM and the CC50 [1] was > 100 µM. The GI50 [2] was 2.8 µM, the LC50 [2] was 32 µM and the TGI [2] was 9.67 µM. For the same molecule, the GI50 [3] was 2.02 µM, the LC50 [3] was 7.24 µM and the TGI [3] was 3.83 µM. The GI50 [4] was 1.68 µM, the LC50 [4] was 6.67 µM and the TGI [4] was 3.35 µM. The GI50 [5] was 6.57 µM, the LC50 [5] was > 100 µM and the TGI [5] was > 100 µM. It also gave a growth at 0.01 µM [6] of 106%, a growth at 0.01 µM [7] of 92% and a growth at 0.01 µM [8] of 93%. For the same molecule, the growth at 0.01 µM [9] was 104%, the growth at 0.01 µM [10] was 89% and the growth at 0.1 µM [11] was 100%. The growth at 0.1 µM [12] was 97%, the growth at 0.1 µM [13] was 95% and the growth at 0.1 µM [14] was 108%. For the same molecule, the growth at 0.1 µM [15] was 99%, the growth at 0.1 µM [16] was 110% and the growth at 0.1 µM [17] was 92%. For the same molecule, the growth at 1 µM [18] was 68%, the growth at 1 µM [19] was 71% and the growth at 1 µM [20] was 114%. For the same molecule, the growth at 1 µM [21] was 101%, the growth at 1 µM [22] was 100% and the growth at 1 µM [23] was 99%. The growth at 1 µM [24] was 87%, the growth at 10 µM [25] was -8% and the growth at 10 µM [26] was 3%. For the same molecule, the growth at 10 µM [27] was -13%, the growth at 10 µM [28] was -49% and the growth at 10 µM [29] was -42%. The growth at 10 µM [30] was -39%, the growth at 10 µM [31] was 11% and the growth at 100 µM [32] was -3%. It also gave a growth at 100 µM [33] of -59%, a growth at 100 µM [34] of -75% and a growth at 100 µM [35] of -62%. The growth at 100 µM [36] was -99% and the growth at 100 µM [37] was -85%.
